According to publication PMC8353271, “Functional Characterization of Olfactory Receptors in the Thyroid Gland” (Frontiers in Physiology, 2021):

Biological target: T1, OR2H2 (Homo sapiens, UniProt O95918)
T1 sequence (O95918 1-312): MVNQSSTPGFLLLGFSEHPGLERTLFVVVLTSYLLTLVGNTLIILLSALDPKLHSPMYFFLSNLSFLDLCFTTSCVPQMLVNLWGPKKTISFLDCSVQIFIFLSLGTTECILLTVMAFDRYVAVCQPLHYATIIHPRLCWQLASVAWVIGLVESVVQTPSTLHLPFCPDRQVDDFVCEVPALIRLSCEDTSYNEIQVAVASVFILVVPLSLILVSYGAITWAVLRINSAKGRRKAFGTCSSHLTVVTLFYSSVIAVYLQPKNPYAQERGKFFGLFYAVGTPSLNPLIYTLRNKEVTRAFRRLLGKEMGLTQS
Test: Fura-2 Ca2+ imaging in Nthy-ori […]-1 cells (endogenous receptor), response reduced by CRISPR/Cas9 OR2H2 knockout; cAMP assay
Assay type: cell-based

EC50: 366 µM
Substance: aldehyde 13-13
